Reference: patent US8269000B2, “Substituted pyrimidine and triazine compounds” (Gruenenthal GmbH, priority 2008, dated 2012)
Structures can show the parent of a compound that is named as a salt.

Legend:
human B1R = target: T1, human B1R (Homo sapiens, UniProt P46663); test: FLIPR Ca2+ functional study on bradykinin receptor 1 (hB1R CHO K1 cells); assay type: cell-based; settings: % inhibition human B1R at 10 μM; for inhibition at 10 µM: read-out: % inh. (hum. B1R) 10 μM
T1 construct: expressed in transfected cells; host or cells: CHO K1 cells
T1 sequence (P46663 1-353): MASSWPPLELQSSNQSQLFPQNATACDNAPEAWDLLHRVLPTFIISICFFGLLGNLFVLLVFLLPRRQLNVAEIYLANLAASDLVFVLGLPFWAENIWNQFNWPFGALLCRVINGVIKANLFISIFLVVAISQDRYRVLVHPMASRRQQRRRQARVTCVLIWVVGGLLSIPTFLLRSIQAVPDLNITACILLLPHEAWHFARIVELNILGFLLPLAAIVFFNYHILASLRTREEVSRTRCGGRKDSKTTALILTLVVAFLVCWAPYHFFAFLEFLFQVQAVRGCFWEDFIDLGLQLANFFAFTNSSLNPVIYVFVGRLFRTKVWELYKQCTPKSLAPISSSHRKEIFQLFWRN
How it was run: (§1)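 Antagonism was calculated as % of maximal inhibition of the Ca2+ rise triggered by agonist at EC80 (Lys-Des-Arg9-bradykinin for hB1R, Des-Arg9-bradykinin for rB1R), added 10-20 min after test compound (10 μM or serial dilutions for IC50) to Fluo-4-loaded transfected CHO K1 cells on FLIPR. Duplicates or triplicates, ≥2 independent runs.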

rat B1R = target: T2, rat B1R (Rattus norvegicus, UniProt P97583); test: FLIPR Ca2+ functional study on bradykinin receptor 1 (rB1R CHO K1 cells); assay type: cell-based; settings: for inhibition at 10 µM: CHO-K1, % inhibition rat B1R at 10 μM, read-out: % inh. (rat B1R) 10 μM; for % inh. (rat B1R) 10 μM: % inhibition rat B1R at 10 μM
T2 construct: expressed in transfected cells; host or cells: CHO K1 cells
T2 sequence (P97583 1-337): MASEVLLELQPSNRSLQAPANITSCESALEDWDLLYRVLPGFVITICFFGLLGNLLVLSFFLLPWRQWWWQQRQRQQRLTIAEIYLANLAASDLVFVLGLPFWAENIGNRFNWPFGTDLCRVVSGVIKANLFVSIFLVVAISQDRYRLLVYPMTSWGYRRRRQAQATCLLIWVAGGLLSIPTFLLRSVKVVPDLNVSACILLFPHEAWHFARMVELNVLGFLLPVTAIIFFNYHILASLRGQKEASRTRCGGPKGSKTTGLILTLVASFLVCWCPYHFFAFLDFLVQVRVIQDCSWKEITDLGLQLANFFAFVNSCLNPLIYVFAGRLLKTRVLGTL
How it was run: as §1

Compound | inhibition at 10 µM (human B1R) | inhibition at 10 µM (rat B1R) | % inh. (hum. B1R) 10 μM (human B1R) | % inh. (rat B1R) 10 μM (rat B1R) | % inh. (rat B1R) 10 μM (rat B1R; 10 µM)
COc1cc(C)c(S(=O)(=O)N2CCC[C@H]2COc2nccc(N3CCN(C4CCN(C)CC4)CC3)n2)c(C)c1 [G_CC-036, 2-[[(2S)-1-(4-methoxy-2,6-dimethylphenyl)sulfonyl-2-pyrrolidinyl]methoxy]-4-[4-(1-methyl-4-piperidinyl)-1-piperazinyl]pyrimidine] | 75% | 102% |  |  | 
COc1cc(C)c(S(=O)(=O)N(CCN(C)c2cc(N3CCC4(CCN(c5ccncc5)CC4)CC3)ncn2)C2CC2)c(C)c1 [Example I-003, N-cyclopropyl-4-methoxy-2,6-dimethyl-N-[2-[methyl-[6-(9-pyridin-4-yl-3,9-diazaspiro[5.5]undecan-3-yl)-pyrimidin-4-yl]-amino]-ethyl]-benzenesulfonic acid amide] | 96% | 108% |  |  | 
COc1cc(C)c(S(=O)(=O)N2CC(Oc3nccc(N4CCC5(CCN(c6ccncc6)CC5)CC4)n3)C2)c(C)c1 [Example G-018, 3-[2-[[1-(4-methoxy-2,6-dimethylphenyl)sulfonyl-3-azetidinyl]oxy]-4-pyrimidinyl]-9-(4-pyridyl)-3,9-diazaspiro[5.5]undecane] | 99% | 93% |  |  | 
COc1cc(C)c(S(=O)(=O)N2CCC[C@H]2COc2nccc(N3CCC4(CCN(c5ccncc5)CC4)CC3)n2)c(C)c1 [G_CC-055, 9-[2-[[(2S)-1-(4-methoxy-2,6-dimethylphenyl)sulfonyl-2-pyrrolidinyl)methoxy]-4-pyrimidinyl]-3-(4-pyridyl)-3,9-diazaspiro[5.5]undecane] | 97% | 101% |  |  | 
COc1cc(C)c(S(=O)(=O)N(CCOc2nccc(N3CCC4(CCN(c5ccncc5)CC4)C3)n2)C2CC2)c(C)c1 [Example G-019, N-cyclopropyl-4-methoxy-2,6-dimethyl-N-[2-[[4-[8-(4-pyridyl)-3,8-diazaspiro[4.5]decan-3-yl]-2-pyrimidinyl]oxy]ethyl]benzenesulfonamide] | 100% | 102% |  |  | 
COc1cc(C)c(S(=O)(=O)N2CCCCC2COc2nccc(N3CCN(CC4CCN(C)CC4)CC3)n2)c(C)c1 (centres unmarked) [G_CC-014, 2-[[1-(4-methoxy-2,6-dimethylphenyl)sulfonyl-2-piperidinyl]methoxy]-4-[4-[(1-methyl-4-piperidinyl)methyl]-1-piperazinyl]pyrimidine] | 94% | 105% |  |  | 
COc1cc(C)c(S(=O)(=O)N(CCOc2nccc(N3CCC4(CCC(N5CCC5)CC4)CC3)n2)C2CC2)c(C)c1 [Example G-015, N-[2-[[4-[9-(1-azetidinyl)-3-azaspiro[5.5]undecan-3-yl]-2-pyrimidinyl]oxy]ethyl]-N-cyclopropyl-4-methoxy-2,6-dimethylbenzenesulfonamide hydrochloride] | 99% | 95% |  |  | 
COc1cc(C)c(S(=O)(=O)N2CCCCC2COc2nccc(N3CCC4(CCN(Cc5ccc(F)cc5)C4=O)CC3)n2)c(C)c1 (centres unmarked) [G_CC-039, 3-[(4-fluorophenyl)methyl]-8-[2-[[1-(4-methoxy-2,6-dimethylphenyl)sulfonyl-2-piperidinyl]methoxy]-4-pyrimidinyl]-3,8-diazaspiro[4.5]decan-4-one] | 58% | 99% |  |  | 
Cc1ccc(Cl)c(S(=O)(=O)N(CCOc2nccc(N3CCC4(CCN(c5ccncc5)CC4)CC3)n2)C2CC2)c1Cl [Example G-021, 2,6-dichloro-N-cyclopropyl-3-methyl-N-[2-[4-(9-pyridin-4-yl-3,9-diazaspiro[5.5]undecan-3-yl)-pyrimidin-2-yl]oxy-ethyl]-benzenesulfonic acid amide] | 90% | 86% |  |  | 
COc1cc(C)c(S(=O)(=O)N2CCC[C@H]2COc2nccc(N3CCC(Oc4ccncc4)CC3)n2)c(C)c1 [G_CC-052, 2-[[(2S)-1-(4-methoxy-2,6-dimethylphenyl)sulfonyl-2-pyrrlidinyl]methoxy]-4-[4-(4-pyridyloxy)-1-piperidinyl]pyrimidine] |  |  | 74% | 99% | 
COc1cc(C)c(S(=O)(=O)N2CCC[C@H]2COc2nccc(N3CCC(O)(c4cccs4)CC3)n2)c(C)c1 [G_CC-021, 1-[2-[[(2S)-1-(4-methoxy-2,6-dimethylphenyl)sulfonyl-2-pyrrolidinyl]methoxy]-4-pyrimidinyl]-4-(2-thienyl)-4-piperidinol] | 36% | 105% |  |  | 
COc1cc(C)c(S(=O)(=O)N2CCCCC2COc2ccnc(N(C)CCN3CCC(c4ccccc4)(N(C)C)CC3)n2)c(C)c1 (centres unmarked) [Example H-004] | 99% |  |  |  | 93%
COc1cc(C)c(S(=O)(=O)N2CCCCC2COc2nccc(N3CCC(CCN4CCCCC4)CC3)n2)c(C)c1 (centres unmarked) [G_CC-026] |  |  | 97% | 100% | 
COc1cc(C)c(S(=O)(=O)N(CCN(C)c2nccc(N3CCC4(CCN(c5ccncc5)CC4)CC3)n2)C2CC2)c(C)c1 [Example I-005, N-cyclopropyl-4-methoxy-2,6-dimethyl-N-[2-[methyl-[4-(9-pyridin-4-yl-3,9-diazaspiro[5.5]undecan-3-yl)-pyrimidin-2-yl]-amino]-ethyl]-benzenesulfonic acid amide] | 96% | 111% |  |  | 
COc1cc(C)c(S(=O)(=O)N2CCCCC2COc2nccc(N3CCN(C4CCN(C)CC4)CC3)n2)c(C)c1 (centres unmarked) [G_CC-002, 2-[[1-(4-methoxy-2,6-dimethylphenyl)sulfonyl-2-piperidinyl]methoxy]-4-[4-(1-methyl-4-piperidinyl)-1-piperazinyl]pyrimidine] | 99% | 101% |  |  | 
COc1cc(C)c(S(=O)(=O)N(C)C(COc2nccc(N3CCC(Oc4ccncc4)CC3)n2)c2ccccc2)c(C)c1 (centres unmarked) [G_CC-063, 4-methoxy-N,2,6-trimethyl-N-[1-phenyl-2-[[4-[4-(4-pyridyloxy)-1-piperidinyl]-2-pyrimidinyl]oxy]ethyl]benzenesulfonamide] | 28% | 101% |  |  | 
COc1cc(C)c(S(=O)(=O)N(C)CCOc2nccc(N(C)CCN3CCC(c4ccccc4)(N(C)C)CC3)n2)c(C)c1 [Example G-003, N-[2-[[4-[2-(4-dimethylamino-4-phenyl-1-piperidinyl)ethyl-methylamino]-2-pyrimidinyl]oxy]ethyl]-4-methoxy-N,2,6-trimethylbenzenesulfonamide] | 101% |  |  |  | 112%
COc1cc(C)c(S(=O)(=O)N(CCOc2cc(N3CCC4(CCN(c5ccncc5)CC4)CC3)ncn2)C2CC2)c(C)c1 [Example I-001, N-cyclopropyl-4-methoxy-2,6-dimethyl-N-[2-[[6-[9-(4-pyridyl)-3,9-diazaspiro[5.5]undecan-3-yl]-4-pyrimidinyl]oxy]ethyl]benzenesulfonamide] | 98% | 88% |  |  | 
COc1cc(C)c(S(=O)(=O)N2CC(Oc3ccnc(N4CCC5(CCN(c6ccncc6)CC5)CC4)n3)C2)c(C)c1 [Example H-007, 3-[4-[[1-(4-methoxy-2,6-dimethylphenyl)sulfonyl-3-azetidinyl]oxy]-2-pyrimidinyl]-9-(4-pyridyl)-3,9-diazaspiro[5.5]undecane] | 11% | 80% |  |  | 
COc1cc(C)c(S(=O)(=O)N(C)CCOc2nccc(N3CCN(C4CCN(C)CC4)CC3)n2)c(C)c1 [G_CC-001, 4-methoxy-N,2,6-trimethyl-N-[2-[[4-[4-(1-methyl-4-piperidinyl)-1-piperazinyl]-2-pyrimidinyl]oxy]ethyl]benzenesulfonamide] | 98% | 97% |  |  | 
COc1cc(C)c(S(=O)(=O)N(CCOc2nccc(N3CCC4(CCN(c5ccncc5)CC4)CC3)n2)C2CC2)c(C)c1 [Example G-005, N-cyclopropyl-4-methoxy-2,6-dimethyl-N-[2-[[4-[9-(4-pyridyl)-3,9-diazaspiro[5.5]undecan-3-yl]-2-pyrimidinyl]oxy]ethyl]benzenesulfonamide hydrochloride] | 99% | 96% |  |  | 
Cc1cccc(Cl)c1S(=O)(=O)N(CCOc1nccc(N2CCC3(CCN(c4ccncc4)CC3)CC2)n1)C1CC1 [Example G-009, 2-chloro-N-cyclopropyl-6-methyl-N-[2-[[4-[9-(4-pyridyl)-3,9-diazaspiro[5.5]undecan-3-yl]-2-pyrimidinyl]oxy]ethyl]benzenesulfonamide] | 97% | 91% |  |  | 
